# Experiments:
# [1] = system: patients with PD; assay: Safety, adverse events and compliance, phase I trial; type: in vivo
# Description: Thirty PD patients were randomly assigned (Block size 6, allocation 1:1) to 500 mg NR, provided in the form of nicotinamide riboside chloride (Niagen® from Chromadex), or placebo twice per day, 12 hours apart, using the electronic Case Report Form (Viedoc.com). The drug containers were sequentially marked by an independent third party. The NR (Niagen®) and placebo were provided by ChromaDex, USA. Each NR capsule contained 250 mg of NR. Placebo capsules contained microcrystalline cellulose. The vials and capsules containing NR and placebo were identical in shape, colour, and smell. Study drug compliance was calculated from counting returned number of study capsules and self-reporting. Participants, examining physicians, medical- and research personnel were blinded for the duration of the trial. Sample size was determined by comparing previous literature with respect to the primary objective.
# At screening for trial entry, candidates underwent physical and neurological examination, brain MRI, and DaTscan. Eligible patients who entered the trial were assessed at baseline (visit 1, V1) and after four weeks of exposure to either NR or placebo (visit 2, V2). At both visits, patients underwent physical and neurological examination, including assessment by the Movement Disorder Society Unified Parkinson's Disease Rating Scale section I-IV (MDS-UPDRS), and biological sampling. MR-PET was performed within one week prior to visit 1, and at visit 2. All participants remained naïve for antiparkinson drugs for the duration of the trial. All clinical assessments were performed by a blinded movement disorders expert. Each patient was examined by the same neurologist at both visits. Methodological details on each procedure are provided below. Safety was monitored through routine clinical blood tests and registration of adverse events. Adverse events (AE) were recorded and scored by the investigative physician. Severity was scored according to severity grading defined by Common Terminology Criteria for Adverse Events v5.0 (CTCAE) as (1) mild, (2) moderate, (3) severe, (4) life-threatening or (5) death. The AE relation to the study drug was scored as (1) unrelated, (2) unlikely, (3) possible, (4) probable or (5) definitely.
# [2] = system: GDF15, FGF21, Nf-L, inflammatory cytokines; assay: Nf-L, GDF15, FGF21 and cytokine detection in serum and CSF; type: in vivo, human
# Description: Neurofilament light chain (Nf-L) measurement in CSF and serum samples was carried out in duplicates using the Simoa NF-light Advantage (SR-X) Kit (Quanterix) according to the manufacturer's recommendations and analyzed on an Simoa SR-X instrument (Quanterix). GDF15 and FGF21 detection was carried out using ELISA kits GDF-15/MIC-1 Human ELISA (RD191135200R) and Fibroblast Growth Factor 21 Human ELISA (RD191108200R) from BioVendor according to manufacturer's recommendations. For CSF analyses of GDF15, CSF was diluted 1:2 in dilution buffer. All samples were analyzed twice in duplicates. Inflammatory Cytokine screening was carried out using the Human Cytokine Magnetic 35-plex panel (Invitrogen), detecting FGF-Basic, IL-1 beta, G-CSF, IL-10, IL-13, IL-6, IL-12, RANTES, Eotaxin, IL-17A, MIP-1 alpha, GM-CSF, MIP-1 beta, MCP-1, IL-15, EGF, IL-5, HGF, VEGF, IL-1 alpha, IFN-gamma, IL-17F, IFN-alpha, IL-9, IL-1RA, TNF-alpha, IL-3, IL-2, IL-7, IP-10, IL-2R, IL-22, MIG, IL-4, IL-8. CSF and serum samples were analyzed according to the manufacturer's recommendations and measured on a BioPlex 200 instrument (BioRad).
# The between visit change ([visit 2]−[visit 1]) in MDS-UPDRS (total of subsections I-III; and individual subsections I, II and III) was compared between the NR and placebo groups using independent Student's t-test. In addition, the between visit change in MDS-UPDRS (total and subsections) within the NR, MRS-responder, and placebo groups was assessed by paired Student's t-test. For the 31P-MRS analyses, the change in measured metabolites between visit 1 and visit 2 was assessed in the placebo- and NR group using paired Student's t-test. In addition, the between-visit change in NAD/ATP-α was compared between the NR and placebo group by independent Student's t-test. For PET analyses, changes in network scores with treatment were evaluated for each group separately using paired Student's t-tests or permutation tests. Relationships between network values, NAD levels and MDS-UPDRS motor ratings or between treatment-related changes in these variables were evaluated using Pearson's product-moment correlations; Spearman rank-order correlation coefficients were computed for non-normal distributions of the variables. These statistical tests were performed using SPSS (SPSS Inc., Chicago, IL); results were considered significant for p≤0.05 (two-tailed). Metabolite quantification data, Nf-L; GDF15, FGF21 and cytokine data were analyzed by paired sample Wilcoxon test using GraphPad Prism v 6.07.
smiles,measurement,setting,value
"NC(=O)c1ccc[n+]([C@@H]2O[C@H](CO)[C@@H](O)[C@H]2O)c1 [NR, nicotinamide riboside]",CTCAE Grading: Upper Respiratory infection,"[1]; 1 event, NR group",Grade 1 (1)
same,Adverse events (n): Anorexia,"[1]; human, in vivo, 4 weeks",1
same,Adverse events (n): Cholelithiasis,"[1]; human, in vivo, 4 weeks",1
same,Adverse events (n): Fatigue,"[1]; human, in vivo, 4 weeks",1
same,Adverse events (n): Headache,"[1]; human, in vivo, 4 weeks",3
same,Adverse events (n): Hematoma (leg),"[1]; human, in vivo, 4 weeks",2
same,Adverse events (n): Inguinal hernia,"[1]; human, in vivo, 4 weeks",1
same,Adverse events (n): Leg Pain,"[1]; human, in vivo, 4 weeks",1
same,Adverse events (n): Nausea,"[1]; human, in vivo, 4 weeks",1
same,Adverse events (n): Upper Respiratory infection,"[1]; human, in vivo, 4 weeks",1
same,CTCAE Grading: Anorexia,"[1]; human, in vivo, 4 weeks",Grade 1 (1)
same,CTCAE Grading: Cholelithiasis,"[1]; human, in vivo, 4 weeks",Grade 1 (1)
same,CTCAE Grading: Fatigue,"[1]; human, in vivo, 4 weeks",Grade 1 (1)
same,CTCAE Grading: Headache,"[1]; human, in vivo, 4 weeks",Grade 1 (4)
same,CTCAE Grading: Inguinal hernia,"[1]; human, in vivo, 4 weeks",Grade 1 (1)
same,CTCAE Grading: Leg Pain,"[1]; human, in vivo, 4 weeks",Grade 1 (1)
same,CTCAE Grading: Nausea,"[1]; human, in vivo, 4 weeks",Grade 1 (1)
same,Causal Relationship to Study Drug: Anorexia,"[1]; human, in vivo, 4 weeks",Unlikely (1)
same,Causal Relationship to Study Drug: Cholelithiasis,"[1]; human, in vivo, 4 weeks",Unrelated (1)
same,Causal Relationship to Study Drug: Fatigue,"[1]; human, in vivo, 4 weeks",Unlikely (1)
same,Causal Relationship to Study Drug: Hematoma (leg),"[1]; human, in vivo, 4 weeks",Unrelated (2)
same,Causal Relationship to Study Drug: Inguinal hernia,"[1]; human, in vivo, 4 weeks",Unrelated (1)
same,Causal Relationship to Study Drug: Leg Pain,"[1]; human, in vivo, 4 weeks",Unrelated (1)
same,Causal Relationship to Study Drug: Nausea,"[1]; human, in vivo, 4 weeks",Unlikely (1)
same,Causal Relationship to Study Drug: Upper Respiratory infection,"[1]; human, in vivo, 4 weeks",Unlikely (1)
same,severity and relatedness of reported adverse events,[1]; in vivo,minor and considered to be unrelated to NR
same,subjects reporting adverse events,[1]; in vivo,Seven
same,FGF21 in serum,"[2]; NR group, visit 2 vs visit 1",unchanged
same,GDF15 levels in CSF (decrease),"[2]; NR group, visit 2 vs visit 1",not in CSF
same,GDF15 levels in serum,"[2]; NR group, visit 2 vs visit 1",mild but significant decrease
same,neurofilament light chain (Nf-L) levels in serum and CSF,"[2]; NR group, visit 2 vs visit 1",unchanged
same,levels of several inflammatory cytokines in serum and CSF,"[2]; NR group, within-group, visit 2 vs visit 1",reduced
same,"fold change of serum cytokines that also decreased in placebo, compared between groups",[2]; NR vs placebo,no significant difference
